Data reported in ChEMBL document CHEMBL5500343, “Activity refinement of aryl amino acetamides that target the P. falciparum STAR-related lipid transfer 1 protein” (Eur J Med Chem, 2024).
≈ marks a conversion by molar mass, not a printed value. Calls of active or inactive are those of the source. The rule behind the calls is not given here.

Experiments:
Plasmodium falciparum [1] = assay: Antimalarial activity against asexual blood stage Plasmodium falciparum 3D7 assessed as reduction in parasite growth incubated for 72 hrs by LDH assay; type: functional, organism-based; conditions: 3D7, 72 h
[2] = Intrinsic clearance in rat hepatocyte measured per 10^6 cells at 1 uM incubated upto 90 mins by LC-MS/MS analysis; type: ADME, cell-based; conditions: rat hepatocytes, read-out: CLH
HepG2 = assay: Cytotoxicity against human HepG2 cells assessed as reduction in cell viability incubated for 48 hrs by Cell Titer-Glo assay; type: functional, cell-based; conditions: HepG2, 48 h
[3] = Kinetic aqueous solubility of the compound in PBS at pH 7.4 incubated for 2 hr under shaking condition by shake flask based UV reader plate analysis; type: physicochemical; conditions: read-out: Kinetic_solubility
[4] = Intrinsic clearance in human liver microsomes at 1 uM incubated upto 60 mins in presence of NADPH by LC-MS/MS analysis; type: ADME, Microsome; conditions: read-out: CLH
[5] = Lipophilicity, LogD of compound in 1-Octanol and PBS at pH 7.4 at 7.5 uM incubated for 2 hrs shake flask method based LC-MS/MS analysis; type: physicochemical; conditions: 1-octanol/PBS
Plasmodium falciparum [6] = assay: Antimalarial activity against MMV006833 resistant Plasmodium falciparum 3D7 assessed as reduction in parasite growth incubated for 72 hrs by LDH assay; type: functional, organism-based; conditions: 3D7, 72 h
Plasmodium falciparum [7] = assay: Antimalarial activity against MMV006833 resistant Plasmodium falciparum 3D7 harboring START1 N309K mutant assessed as reduction in parasite growth incubated for 72 hrs by LDH assay; type: functional, organism-based; conditions: 3D7, 72 h
Plasmodium falciparum [8] = assay: Antimalarial activity against MMV006833 resistant Plasmodium falciparum 3D7 harboring START1 N330K mutant assessed as reduction in parasite growth incubated for 72 hrs by LDH assay; type: functional, organism-based; conditions: 3D7, 72 h
Plasmodium falciparum [9] = assay: Antimalarial activity against Plasmodium falciparum Dd2 assessed as reduction in parasite growth incubated for 72 hrs by [3H]-hypoxanthine incorporation assay; type: functional, organism-based
Plasmodium falciparum [10] = assay: Antimalarial activity against KAF-156 resistant Plasmodium falciparum Dd2 harboring CARL I1139K mutant assessed as reduction in parasite growth incubated for 72 hrs by [3H]-hypoxanthine incorporation assay; type: functional, organism-based
Plasmodium falciparum [11] = assay: Antimalarial activity against DSM-265 resistant Plasmodium falciparum Dd2 harboring DHODH C276F mutant assessed as reduction in parasite growth incubated for 72 hrs by [3H]-hypoxanthine incorporation assay; type: functional, organism-based
Plasmodium falciparum [12] = assay: Antimalarial activity against DDD-107498 resistant Plasmodium falciparum Dd2 harboring eEF2 Y86N mutant assessed as reduction in parasite growth incubated for 72 hrs by [3H]-hypoxanthine incorporation assay; type: functional, organism-based
Plasmodium falciparum [13] = assay: Antimalarial activity against MMV-048 resistant Plasmodium falciparum Dd2 harboring PI4K S743T mutant assessed as reduction in parasite growth incubated for 72 hrs by [3H]-hypoxanthine incorporation assay; type: functional, organism-based
Plasmodium falciparum [14] = assay: Antimalarial activity against ELQ-300 resistant Plasmodium falciparum Dd2 harboring Cyt b I22L mutant assessed as reduction in parasite growth incubated for 72 hrs by [3H]-hypoxanthine incorporation assay; type: functional, organism-based
Plasmodium falciparum [15] = assay: Antimalarial activity against chloroquine and mefloquine resistant Plasmodium falciparum K1 assessed as reduction in parasite growth incubated for 72 hrs by [3H]-hypoxanthine incorporation assay; type: functional, organism-based
Plasmodium falciparum [16] = assay: Antimalarial activity against chloroquine and mefloquine resistant Plasmodium falciparum NF54 assessed as reduction in parasite growth incubated for 72 hrs by [3H]-hypoxanthine incorporation assay; type: functional, organism-based
Plasmodium falciparum [17] = assay: Antimalarial activity against atovaquone resistant Plasmodium falciparum TM90-C2B assessed as reduction in parasite growth incubated for 72 hrs by [3H]-hypoxanthine incorporation assay; type: functional, organism-based
Plasmodium falciparum [18] = assay: Antimalarial activity against chloroquine and mefloquine resistant Plasmodium falciparum 7G8 assessed as reduction in parasite growth incubated for 72 hrs by [3H]-hypoxanthine incorporation assay; type: functional, organism-based
Plasmodium falciparum [19] = assay: Antimalarial activity against chloroquine and mefloquine resistant Plasmodium falciparum RF12 assessed as reduction in parasite growth incubated for 72 hrs by [3H]-hypoxanthine incorporation assay; type: functional, organism-based
[20] = Binding affinity to recombinant Plasmodium falciparum START1 assessed as dissociation constant by isothermal titration calorimetry
Plasmodium falciparum [21] = assay: Antimalarial activity against asexual blood stage Plasmodium falciparum Dd2-B2 assessed as reduction in parasite growth measured for 60 days by flow cytometry; type: functional; conditions: Dd2-B2, 1440 h, time 60 day
Plasmodium falciparum [22] = assay: Antimalarial activity against asexual blood stage Plasmodium falciparum Dd2-B2 assessed as reduction in recrudescence measured for 60 days by flow cytometry; type: functional, organism-based; conditions: time 60.0 day
Plasmodium falciparum [23] = assay: Antimalarial activity against asexual blood stage Plasmodium falciparum Dd2-F6 assessed as minimum inoculum of resistance at 2.2 times IC50 measured for 35 days by SYBR Green I dye based flow cytometry; type: functional; conditions: time 35 day
Plasmodium falciparum [24] = assay: Binding affinity to recombinant Plasmodium falciparum START1 assessed as change in enthalpy at 10 uM by isothermal titration calorimetry
Plasmodium falciparum [25] = assay: Binding affinity to recombinant Plasmodium falciparum START1 assessed as change in entropy at 10 uM by isothermal titration calorimetry
Plasmodium berghei = assay: Antimalarial activity against Plasmodium berghei ANKA infected in mouse assessed as reduction of parasitaemia at 30 mg/kg,po bid administrated for 72 hrs and measured after 24 hrs post last dose by Giemsa staining based microscopic analysis relative to control; type: functional; parameters: scale not given: the % may be the effect or the level left; conditions: time 96 hrs

CC(C)(Nc1ccc(Cl)c(S(=O)(=O)N2CCOCC2)c1)C(=O)Nc1ccc(F)c(Cl)c1
EC50 (Plasmodium falciparum [1]): 5 nM
hepatocyte CLint at 1 µM [2]: > 92 µL/min/1e6 cells
EC50 (HepG2): 31500 nM
solubility kinetic at 2 h [3]: 16 µM (≈ 7.85 µg/mL)
microsomal CLint at 1 µM [4]: > 462 µL/min/mg
logD at 2 h, 7.5 µM [5]: 3.9
EC50 (Plasmodium falciparum [6]): 4 nM
EC50 (Plasmodium falciparum [7]): 3200 nM
EC50 (Plasmodium falciparum [8]): 2200 nM
EC50 (Plasmodium falciparum [9]): 1 nM
EC50 (Plasmodium falciparum [10]): 1 nM
EC50 (Plasmodium falciparum [11]): 1 nM
EC50 (Plasmodium falciparum [12]): 1 nM
EC50 (Plasmodium falciparum [13]): 1 nM
EC50 (Plasmodium falciparum [14]): 1 nM
EC50 (Plasmodium falciparum [15]): 2 nM
EC50 (Plasmodium falciparum [16]): 2 nM
EC50 (Plasmodium falciparum [17]): 1 nM
EC50 (Plasmodium falciparum [18]): 1 nM
EC50 (Plasmodium falciparum [19]): 1 nM
Kd [20]: 10 nM
EC90 (Plasmodium falciparum [21]): 9.7 nM
Activity (Plasmodium falciparum [22]): inactive
Activity (Plasmodium falciparum [23]): 1.9 10^7No_unit

C[C@@H](Nc1ccc(Cl)c(S(=O)(=O)N2CCOCC2)c1)C(=O)Nc1ccc(F)c(Cl)c1
EC50 (Plasmodium falciparum [1]): 320 nM
EC50 (HepG2): > 40000 nM
EC50 (Plasmodium falciparum [6]): 99 nM
EC50 (Plasmodium falciparum [7]): 4300 nM
EC50 (Plasmodium falciparum [8]): 4400 nM
deltaH (Plasmodium falciparum [24]): -16.1 kcal/mol
-TdeltaS (Plasmodium falciparum [25]): 6.7 kcal/mol
Kd [20]: 138 nM

CC(C)[C@H](Nc1ccc(Cl)c(S(=O)(=O)N2CCOCC2)c1)C(=O)Nc1ccc(F)c(Cl)c1
EC50 (Plasmodium falciparum [1]): 33 nM
EC50 (HepG2): 30300 nM
EC50 (Plasmodium falciparum [6]): 5 nM
EC50 (Plasmodium falciparum [7]): 2400 nM
EC50 (Plasmodium falciparum [8]): 2100 nM

C[C@@H]1CC[C@H]2[C@@H](C)C(=O)O[C@@H]3O[C@@]4(C)CC[C@@H]1[C@]32OO4 [ARTEMISININ]
Activity (Plasmodium berghei): >98%

O=C(CNc1ccc(Cl)c(S(=O)(=O)N2CCOCC2)c1)Nc1ccc(F)c(Cl)c1
EC50 (Plasmodium falciparum [1]): 80 nM
hepatocyte CLint at 1 µM [2]: > 92 µL/min/1e6 cells
EC50 (HepG2): > 40000 nM
solubility kinetic at 2 h [3]: 19 µM (≈ 8.78 µg/mL)
microsomal CLint at 1 µM [4]: > 462 µL/min/mg
logD at 2 h, 7.5 µM [5]: 2.2
EC50 (Plasmodium falciparum [9]): 54 nM
EC50 (Plasmodium falciparum [10]): 26 nM
EC50 (Plasmodium falciparum [11]): 20 nM
EC50 (Plasmodium falciparum [12]): 28 nM
EC50 (Plasmodium falciparum [13]): 28 nM
EC50 (Plasmodium falciparum [14]): 24 nM
EC50 (Plasmodium falciparum [15]): 48 nM
EC50 (Plasmodium falciparum [16]): 42 nM
EC50 (Plasmodium falciparum [17]): 31 nM
EC50 (Plasmodium falciparum [18]): 26 nM
EC50 (Plasmodium falciparum [19]): 32 nM

CCC(C)[C@H](Nc1ccc(Cl)c(S(=O)(=O)N2CCOCC2)c1)C(=O)Nc1ccc(F)c(Cl)c1 (stereo partly specified)
EC50 (Plasmodium falciparum [1]): 27 nM
EC50 (HepG2): 10900 nM
EC50 (Plasmodium falciparum [6]): 15 nM
EC50 (Plasmodium falciparum [7]): 2100 nM
EC50 (Plasmodium falciparum [8]): 1600 nM

N#Cc1ccc(NCC(=O)Nc2ccc(F)c(Cl)c2)cc1S(=O)(=O)N1CCOCC1
EC50 (Plasmodium falciparum [1]): 750 nM
EC50 (HepG2): > 40000 nM

O=C(CNc1ccc(Cl)c(S(=O)(=O)N2CCC(Cc3ccccc3)CC2)c1)Nc1ccc(F)c(Cl)c1
EC50 (Plasmodium falciparum [1]): 270 nM
EC50 (HepG2): 14000 nM

O=C(CNc1ccc(Cl)c(S(=O)(=O)N2CCOCC2)c1)Nc1cccc(Cl)n1
EC50 (Plasmodium falciparum [1]): 8900 nM
EC50 (HepG2): > 40000 nM
